Data reported in patent US20200323838A1, “LENALIDOMIDE IMMEDIATE RELEASE FORMULATIONS” (Synbias Pharma AG, priority 2017, published 2020).
≈ marks a conversion by molar mass, not a printed value. Read-outs that look alike come from different tables or passages of the source. Each block holds one compound with its values, some of them ahead of it.

What was measured:
[1] = cited from earlier work
[2] = 0.1 HCl buffer (highest solubility); cited from earlier work
[3] = Dissolution of hard gelatin capsules (Xtend Sotax dissolutor, HPLC detection); assay type: physicochemical
Description: (§1) Micronized lenalidomide form A (d(0.5)=10 μm) was mixed with microcrystalline cellulose in a ratio 1:10, filled manually in Size 2 HGC and analyzed for dissolution. Dissolution experiments were run in Xtend Sotax dissolutor, in phosphate buffer pH 6.5 and 0.01 HCl pH 1.8. Sampling time intervals were 10, 15, 20, min. In house developed isocratic HPLC analytical method was used for detection of lenalidomide in dissolution media.
as §1, with “Non-micronized” for “Micronized”, “(d(0.5)=30” for “(d(0.5)=10”
20 mg of non-micronized lenalidomide form A were mixed with 20 mg microcrystalline cellulose, 60 mg lactose monohydrate and, filled manually in size 2 HGC and analyzed for dissolution as in Example 1.
Formulation prepared according to Example 6 was used for comparative dissolution with Revlimid HGCs in 50 mM phosphate buffer pH 6.8. The results in Table 8 show there was no difference between dissolution profile of Revlimid and tested HGC. […]

[4] = high solubility, low permeability; cited from earlier work
[5] = HCl buffer pH 1.8, containing 1% sodium lauryl sulfate; cited from earlier work

lenalidomide API dissolved in 10 min [3]: ≥ 80%
Structure (SMILES): Nc1cccc2c1CN(C1CCC(=O)NC1=O)C2=O (stereo not drawn) [Lenalidomide, 3-(4-amino-1,3-dihydro-1-oxo-2H-isoindol-2-yl)-2,6-piperidine dione]
time to reach maximum serum concentration (Tmax) ([1]; healthy volunteers, oral): 46.2 to 60 min
time to reach maximum serum concentration (Tmax) ([1]; patients with acute myeloid leukemia, oral administration, 25 mg): 71.4 min
solubility [2]: 18.0 mg/mL (≈ 69.4 mM)
BCS class [4]: class III

Structure (SMILES): Nc1cccc2c1CN(C1CCC(=O)NC1=O)C2=O (stereo not drawn) [Polymorph B]
solubility [5]: 5.8 mg/mL (≈ 22.4 mM)
